Reference: the OligoGym collection
“And” between values parts separate entries of the source, which are not always exact repeats. Identical values can stand only once. HELM strings list units from the 5' end as sugar, base in round brackets, then linkage (d deoxyribose, r ribose, m 2'-O-methyl, p phosphodiester). Methylation of C is not given here. [moe] = 2'-O-(2-methoxyethyl) (MOE); [cEt] = constrained ethyl (cEt); [sp] = phosphorothioate linkage

Target: HBV
Details: ASO

Substance | target mRNA inhibition (HepG2, 0.07 µM) | further results
RNA1{[moe](G)[sp].[cEt](C)[sp].[cEt](A)[sp].d(C)[sp].d(T)[sp].d(A)[sp].d(G)[sp].d(T)[sp].d(A)[sp].d(A)[sp].d(A)[sp].d(C)[sp].d(T)[sp].[cEt](G)[sp].[cEt](A)[sp].[moe](G)}$$$$V2.0 | 73% and 81% | target mRNA inhibition (HepG2, 0.0092593 µM): 8%; target mRNA inhibition (HepG2, 0.0277778 µM): 24%; target mRNA inhibition (HepG2, 0.0833333 µM): 65%; target mRNA inhibition (HepG2, 0.25 µM): 87%
RNA1{[moe](C)[sp].[moe](T)[sp].[moe](A)[sp].d(G)[sp].d(T)[sp].d(A)[sp].d(A)[sp].d(A)[sp].d(C)[sp].d(T)[sp].d(G)[sp].d(A)[sp].d(G)[sp].[cEt](C)[sp].[cEt](C)[sp].[cEt](A)}$$$$V2.0 | 71% and 79% | 
RNA1{[moe](C)[sp].[moe](A)[sp].[moe](G)[sp].d(A)[sp].d(G)[sp].d(G)[sp].d(T)[sp].d(G)[sp].d(A)[sp].d(A)[sp].d(G)[sp].d(C)[sp].[moe](G)[sp].[moe](A)[sp].[moe](A)[sp].[moe](G)[sp].[moe](T)}$$$$V2.0 | 63% and 50% | 
RNA1{[moe](G)[sp].[moe](A)[sp].[moe](G)[sp].d(G)[sp].d(C)[sp].d(A)[sp].d(T)[sp].d(A)[sp].d(G)[sp].d(C)[sp].d(A)[sp].d(G)[sp].[moe](C)[sp].[moe](A)[sp].[moe](G)[sp].[moe](G)[sp].[moe](A)}$$$$V2.0 | 66% and 57% | 
RNA1{[moe](G)[sp].[moe](G)[sp].[moe](A)[sp].[moe](G)[sp].[moe](T)[sp].[moe](T)[sp].d(C)[sp].d(C)[sp].d(G)[sp].d(C)[sp].d(A)[sp].d(G)[sp].d(T)[sp].d(A)[sp].d(T)[sp].[moe](G)[sp].[moe](G)}$$$$V2.0 |  | target mRNA inhibition (HepG2, 0.0092593 µM): 2%; target mRNA inhibition (HepG2, 0.0277778 µM): 25%; target mRNA inhibition (HepG2, 0.0833333 µM): 55%; target mRNA inhibition (HepG2, 0.25 µM): 74%
RNA1{[moe](G)[sp].[cEt](A)[sp].d(G)[sp].d(T)[sp].d(T)[sp].d(C)[sp].d(C)[sp].d(G)[sp].d(C)[sp].d(A)[sp].d(G)[sp].d(T)[sp].[cEt](A)[sp].[moe](T)[sp].[cEt](G)[sp].[moe](G)}$$$$V2.0 | 75% and 68% | 
RNA1{[moe](A)[sp].[moe](T)[sp].[moe](T)[sp].[moe](T)[sp].[moe](A)[sp].d(T)[sp].d(G)[sp].d(C)[sp].d(C)[sp].d(T)[sp].d(A)[sp].d(C)[sp].d(A)[sp].d(G)[sp].[moe](C)[sp].[moe](C)[sp].[moe](T)}$$$$V2.0 | 70% and 48% | 
RNA1{[moe](A)[sp].[moe](G)[sp].[moe](G)[sp].[moe](C)[sp].d(A)[sp].d(T)[sp].d(A)[sp].d(G)[sp].d(C)[sp].d(A)[sp].d(G)[sp].d(C)[sp].d(A)[sp].[moe](G)[sp].[moe](G)[sp].[moe](A)[sp].[moe](T)}$$$$V2.0 | 29% and 31% | 
RNA1{[moe](A)[sp].[moe](C)[sp].d(C)[sp].d(A)[sp].d(C)[sp].d(T)[sp].d(G)[sp].d(A)[sp].d(A)[sp].d(C)[sp].d(A)[sp].[moe](A)[sp].[moe](A)[sp].[moe](T)[sp].[moe](G)[sp].[moe](G)}$$$$V2.0 | 43% and 44% | 
RNA1{[moe](A)[sp].[cEt](G)[sp].d(G)[sp].d(C)[sp].d(A)[sp].d(G)[sp].d(A)[sp].d(G)[sp].d(G)[sp].d(T)[sp].d(G)[sp].d(A)[sp].[cEt](A)[sp].[moe](A)[sp].[cEt](A)[sp].[moe](A)}$$$$V2.0 | 39% and 37% | 
RNA1{[moe](T)[sp].[moe](G)[sp].[moe](A)[sp].[moe](A)[sp].[moe](G)[sp].[moe](C)[sp].d(G)[sp].d(A)[sp].d(A)[sp].d(G)[sp].d(T)[sp].d(G)[sp].d(C)[sp].d(A)[sp].d(C)[sp].[moe](A)[sp].[moe](C)}$$$$V2.0 | 84% and 64% | 
RNA1{[moe](A)[sp].[moe](G)[sp].[moe](G)[sp].[moe](T)[sp].[moe](G)[sp].d(A)[sp].d(A)[sp].d(G)[sp].d(C)[sp].d(G)[sp].d(A)[sp].d(A)[sp].d(G)[sp].d(T)[sp].[moe](G)[sp].[moe](C)[sp].[moe](A)}$$$$V2.0 | 73% and 56% | 
RNA1{[moe](T)[sp].[moe](T)[sp].d(C)[sp].d(C)[sp].d(G)[sp].d(C)[sp].d(A)[sp].d(G)[sp].d(T)[sp].d(A)[sp].d(T)[sp].[moe](G)[sp].[moe](G)[sp].[moe](A)[sp].[moe](T)[sp].[moe](C)}$$$$V2.0 | 62% and 50% | 
RNA1{[moe](G)[sp].[moe](C)[sp].[moe](A)[sp].[moe](G)[sp].[moe](A)[sp].[moe](G)[sp].d(G)[sp].d(T)[sp].d(G)[sp].d(A)[sp].d(A)[sp].d(G)[sp].d(C)[sp].d(G)[sp].d(A)[sp].[moe](A)[sp].[moe](G)}$$$$V2.0 | 65% and 68% | 
RNA1{[moe](G)[sp].[cEt](A)[sp].[cEt](A)[sp].d(G)[sp].d(C)[sp].d(G)[sp].d(A)[sp].d(A)[sp].d(G)[sp].d(T)[sp].d(G)[sp].d(C)[sp].d(A)[sp].[cEt](C)[sp].[cEt](A)[sp].[moe](C)}$$$$V2.0 | 75% and 78% | 
RNA1{[moe](C)[sp].[moe](C)[sp].[moe](G)[sp].d(C)[sp].d(A)[sp].d(G)[sp].d(T)[sp].d(A)[sp].d(T)[sp].d(G)[sp].d(G)[sp].d(A)[sp].[moe](T)[sp].[moe](C)[sp].[moe](G)[sp].[moe](G)[sp].[moe](C)}$$$$V2.0 | 86% and 73% | 
RNA1{[moe](A)[sp].[moe](C)[sp].d(G)[sp].d(T)[sp].d(G)[sp].d(C)[sp].d(A)[sp].d(G)[sp].d(A)[sp].d(G)[sp].d(G)[sp].[moe](T)[sp].[moe](G)[sp].[moe](A)[sp].[moe](A)[sp].[moe](G)}$$$$V2.0 | 57% and 44% | 
RNA1{[moe](A)[sp].[moe](C)[sp].[moe](T)[sp].[moe](A)[sp].[moe](G)[sp].[moe](T)[sp].d(A)[sp].d(A)[sp].d(A)[sp].d(C)[sp].d(T)[sp].d(G)[sp].d(A)[sp].d(G)[sp].d(C)[sp].[moe](C)[sp].[moe](A)}$$$$V2.0 | 84% and 75% | target mRNA inhibition (HepG2, 0.0092593 µM): 2%; target mRNA inhibition (HepG2, 0.0277778 µM): 15%; target mRNA inhibition (HepG2, 0.0833333 µM): 38%; target mRNA inhibition (HepG2, 0.25 µM): 75%
RNA1{[moe](A)[sp].[moe](A)[sp].[moe](G)[sp].[moe](A)[sp].[moe](T)[sp].[moe](G)[sp].d(A)[sp].d(G)[sp].d(G)[sp].d(C)[sp].d(A)[sp].d(T)[sp].d(A)[sp].d(G)[sp].d(C)[sp].[moe](A)[sp].[moe](G)}$$$$V2.0 | 65% and 41% | 
RNA1{[moe](G)[sp].[cEt](T)[sp].[cEt](T)[sp].d(C)[sp].d(C)[sp].d(G)[sp].d(C)[sp].d(A)[sp].d(G)[sp].d(T)[sp].d(A)[sp].d(T)[sp].d(G)[sp].[cEt](G)[sp].[cEt](A)[sp].[moe](T)}$$$$V2.0 | 69% and 72% | 
RNA1{[moe](C)[sp].[cEt](G)[sp].[cEt](A)[sp].d(A)[sp].d(C)[sp].d(C)[sp].d(A)[sp].d(C)[sp].d(T)[sp].d(G)[sp].d(A)[sp].d(A)[sp].d(C)[sp].[cEt](A)[sp].[cEt](A)[sp].[moe](A)}$$$$V2.0 | 64% and 48% | 
RNA1{[moe](G)[sp].[moe](G)[sp].[moe](T)[sp].d(G)[sp].d(A)[sp].d(A)[sp].d(G)[sp].d(C)[sp].d(G)[sp].d(A)[sp].d(A)[sp].d(G)[sp].[moe](T)[sp].[moe](G)[sp].[moe](C)[sp].[moe](A)[sp].[moe](C)}$$$$V2.0 | 78% and 64% | 
